Test results as given in patent US10934276B2, “Positive allosteric modulators of the muscarinic acetylcholine receptor M4” (Vanderbilt University, priority 2016, dated 2021).

Biological target: T1, Human M4 (Homo sapiens, UniProt P08173)
T1 construct: expressed in transfected cells; host or cells: CHO-K1 (ATCC), stably expressing hM4 and Gqi5
T1 sequence (P08173 1-479): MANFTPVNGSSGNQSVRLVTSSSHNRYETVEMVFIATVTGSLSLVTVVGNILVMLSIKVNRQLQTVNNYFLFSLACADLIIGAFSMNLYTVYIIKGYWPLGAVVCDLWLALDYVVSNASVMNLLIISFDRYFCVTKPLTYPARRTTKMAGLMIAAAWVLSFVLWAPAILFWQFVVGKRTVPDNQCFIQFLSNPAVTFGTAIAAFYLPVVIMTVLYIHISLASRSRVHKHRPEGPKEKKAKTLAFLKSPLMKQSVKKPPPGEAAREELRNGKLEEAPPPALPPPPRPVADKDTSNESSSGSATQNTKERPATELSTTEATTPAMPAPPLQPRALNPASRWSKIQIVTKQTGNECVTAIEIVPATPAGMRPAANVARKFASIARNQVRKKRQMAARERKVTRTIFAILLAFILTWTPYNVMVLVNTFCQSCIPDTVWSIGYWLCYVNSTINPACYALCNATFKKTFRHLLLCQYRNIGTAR
Assay: mAChR M4 cell-based functional assay (calcium flux, potentiation of EC20 acetylcholine response in CHO-K1 hM4-Gqi5 cells)
Conditions: for Emax at 30 µM: CHO-K1, % ACh maximum at 30 μM, human M4; for EC50: positive allosteric modulator mode, EC20 acetylcholine, CHO-K1 cells with human M4 and Gqi5
Description: Human M4 cDNA, along with the chimeric G protein Gqi5, were transfected into Chinese hamster ovary (CHO—K1) cells purchased from the American Type Culture Collection using Lipofectamine2000. hM4-Gqi5 cells were grown in Ham's F-12 medium containing 10% heat-inactivated fetal bovine serum (FBS), 20 mM HEPES, 50 μg/mL G418 sulfate, and 500 μg/mL Hygromycin B. rM4-Gqi5 cells were grown in DMEM containing 10% heat-inactivated FBS, 20 mM HEPES, 400 μg/mL G418 sulfate, and 500 μg/mL Hygromycin B.
For high throughput measurement of agonist-evoked increases in intracellular calcium, CHO—K1 cells stably expressing muscarinic receptors were plated in growth medium lacking G418 and hygromycin at 15,000 cells/20 μL/well in Greiner 384-well black-walled, tissue culture (TC)-treated, clear-bottom plates (VWR). Cells were incubated overnight at 37° C. and 5% CO2. The next day, cells were washed using an ELX 405 (BioTek) with assay buffer; the final volume was then aspirated to 20 μL. Next, 20 μL of a 2.3 μM stock of Fluo-4/acetoxymethyl ester (Invitrogen, Carlsbad, Calif.), prepared as a 2.3 mM stock in DMSO and mixed in a 1:1 ratio with 10% (w/v) Pluronic F-127 and diluted in assay buffer, was added to the wells and the cell plates were incubated for 50 min at 37° C. and 5% CO2. Dye was removed by washing with the ELX 405 and the final volume was aspirated to 20 μL. Compound master plates were formatted in an 11 point concentration-response curve (CRC) format (1:3 dilutions) in 100% DMSO with a starting concentration of 10 mM using a BRAVO liquid handler (Agilent). Test compound CRCs were then transferred to daughter plates (240 nL) using the Echo acoustic plate reformatter (Labcyte, Sunnyvale, Calif.) and then diluted into assay buffer (40 μL) to a 2× stock using a Thermo Fisher Combi (Thermo Fisher Scientific, Waltham, Mass.).
Calcium flux was measured using the Functional Drug Screening System (FDSS) 6000 or 7000 (Hamamatsu Corporation, Tokyo, Japan) as an increase in the fluorescent static ratio. Compounds were applied to cells (20 μL, 2×) using the automated system of the FDSS at 2-4 seconds into the protocol and the data were collected at 1 Hz. At 144 seconds, 10 μL of an EC20 concentration of the muscarinic receptor agonist acetylcholine was added (5×), followed by the addition of 12 μL of an EC80 concentration of acetylcholine at the 230 second time point (5×). Agonist activity was analyzed as a concentration-dependent increase in calcium mobilization upon compound addition. Positive allosteric modulator activity was analyzed as a concentration-dependent increase in the EC20 acetylcholine response. With the acetylcholine EC20 set as baseline, the test compound EC50 is determined as the concentration that produces an increase above baseline of 50% of the maximum increase in acetylcholine response elicted by the test compound. Antagonist activity was analyzed as a concentration-dependent decrease in the EC80 acetylcholine response. Concentration-response curves were generated using a four-parameter logistical equation in XLFit curve fitting software (IDBS, Bridgewater, N.J.) for Excel (Microsoft, Redmond, Wash.) or Prism (GraphPad Software, Inc., San Diego, Calif.).
Compounds were synthesized as described above. Activity (EC50 and Emax) was determined in the mAChR M4 cell-based functional assay as described above and the data are shown in Table 3. The compound numbers correspond to the compound numbers used in Examples 2-4 and Tables 1 and 2.

| Emax at 30 µM | EC50 | SMILES |
| --- | --- | --- |
| 59.5% | 1600 nM | Cc1cc(C)c2cc(C(=O)NC3CN(c4nccc(Br)c4F)C3)ccc2n1 [Compound 13, N-[1-(4-bromo-3-fluoro-2-pyridyl)azetidin-3-yl]-2,4-dimethyl-quinoline-6-carboxamide] |
| 79.9% | 2510 nM | Cc1nnc2ccc(C(=O)NC3CN(c4cnc(C5CC5)cn4)C3)cc2c1C [Compound 22, N-[1-(5-cyclopropylpyrazin-2-yl)azetidin-3-yl]-3,4-dimethyl-cinnoline-6-carboxamide] |
| 53.1% | > 10000 nM | COc1ccc(CNC(=O)c2ccc3nc(C)cc(C)c3c2)cc1F [Compound 1, N-[(3-fluoro-4-methoxy-phenyl)methyl]-2,4-dimethyl-quinoline-6-carboxamide] |
| 80.6% | 1030 nM | Cc1nnc2ccc(C(=O)NC3CN(c4ccc(C#N)cn4)C3)cc2c1C [Compound 25, N-[1-(5-cyano-2-pyridyl)azetidin-3-yl]-3,4-dimethyl-cinnoline-6-carboxamide] |
| 83.7% | 950 nM | Cc1nnc2ccc(C(=O)NC3CN(c4ncccc4Cl)C3)cc2c1C [Compound 35, N-[1-(3-chloro-2-pyridyl)azetidin-3-yl]-3,4-dimethyl-cinnoline-6-carboxamide] |
| 44.2% | 6900 nM | Cc1cc(C)c2cc(C(=O)NC3CN(c4ncc(C(F)(F)F)cn4)C3)ccc2n1 [Compound 3, 2,4-dimethyl-N-[1-[5-(trifluoromethyl)pyrimidin-2-yl]azetidin-3-yl]quinoline-6-carboxamide] |
| 77.2% | 1320 nM | Cc1nnc2ccc(C(=O)NC3CN(c4cccc(Cl)n4)C3)cc2c1C [Compound 32, N-[1-(6-chloro-2-pyridyl)azetidin-3-yl]-3,4-dimethyl-cinnoline-6-carboxamide] |
| 55.5% | 1400 nM | Cc1cc(C)c2cc(C(=O)NC3CN(c4ccnc(OC(F)F)c4)C3)ccc2n1 [Compound 10, N-[1-[2-(difluoromethoxy)-4-pyridyl]azetidin-3-yl]-2,4-dimethyl-quinoline-6-carboxamide] |
| 53.5% | > 10000 nM | Cc1nnc2ccc(C(=O)NC3CCCC3)cc2c1C [Compound 41, N-cyclopentyl-3,4-dimethyl-cinnoline-6-carboxamide] |
| 79.7% | 460 nM | Cc1nnc2ccc(C(=O)NC3CN(c4ncc(F)cc4Cl)C3)cc2c1C [Compound 26, N-[1-(3-chloro-5-fluoro-2-pyridyl)azetidin-3-yl]-3,4-dimethyl-cinnoline-6-carboxamide] |
| 75.7% | 2630 nM | Cc1nnc2ccc(C(=O)NC3CN(c4ncc(C(F)(F)F)cc4Cl)C3)cc2c1C [Compound 28, N-[1-[3-chloro-5-(trifluoromethyl)-2-pyridyl]azetidin-3-yl]-3,4-dimethyl-cinnoline-6-carboxamide] |
| 91.6% | 120 nM | Cc1nnc2ccc(C(=O)NC3CN(c4cc(Cl)ncc4Cl)C3)cc2c1C [Compound 30, N-[1-(2,5-dichloro-4-pyridyl)azetidin-3-yl]-3,4-dimethyl-cinnoline-6-carboxamide] |
| 65.4% | 170 nM | Cc1cc(C)c2cc(C(=O)NC3CN(c4ccnc(F)c4F)C3)ccc2n1 [Compound 12, N-[1-(2,3-difluoro-4-pyridyl)azetidin-3-yl]-2,4-dimethyl-quinoline-6-carboxamide] |
| 64.2% | 3360 nM | Cc1nnc2ccc(C(=O)NC3CN(c4cccc(C(F)(F)F)n4)C3)cc2c1C [Compound 38, 3,4-dimethyl-N-[1-[6-(trifluoromethyl)-2-pyridyl]azetidin-3-yl]cinnoline-6-carboxamide] |
| 41.1% | 1700 nM | Cc1cc(N2CC(NC(=O)c3ccc4nc(C)cc(C)c4c3)C2)cc(OC(F)F)n1 [Compound 8, N-[1-[2-(difluoromethoxy)-6-methyl-4-pyridyl]azetidin-3-yl]-2,4-dimethyl-quinoline-6-carboxamide] |
| 32% | > 10000 nM | Cc1cc(C)c2cc(C(=O)NCc3cccnc3)ccc2n1 [Compound 7, 2,4-dimethyl-N-(3-pyridylmethyl)quinoline-6-carboxamide] |
| 75.4% | > 10000 nM | Cc1nnc2ccc(C(=O)NC3CN(c4ncc(F)cn4)C3)cc2c1C [Compound 19, N-[1-(5-fluoropyrimidin-2-yl)azetidin-3-yl]-3,4-dimethyl-cinnoline-6-carboxamide] |
| 76.7% | > 10000 nM | Cc1nnc2ccc(C(=O)NC3CN(c4ncc(C(F)(F)F)cn4)C3)cc2c1C [Compound 17, 3,4-dimethyl-N-[1-[5-(trifluoromethyl)pyrimidin-2-yl]azetidin-3-yl]cinnoline-6-carboxamide] |
| 82% | 650 nM | Cc1nnc2ccc(C(=O)NC3CN(c4ncc(Cl)cc4F)C3)cc2c1C [Compound 36, N-[1-(5-chloro-3-fluoro-2-pyridyl)azetidin-3-yl]-3,4-dimethyl-cinnoline-6-carboxamide] |
| 73.4% | 1270 nM | Cc1nnc2ccc(C(=O)NC3CN(c4ccc(Cl)cn4)C3)cc2c1C [Compound 23, N-[1-(5-chloro-2-pyridyl)azetidin-3-yl]-3,4-dimethyl-cinnoline-6-carboxamide] |
| 84.5% | 670 nM | Cc1nnc2ccc(C(=O)NC3CN(c4cccc(F)n4)C3)cc2c1C [Compound 33, N-[1-(6-fluoro-2-pyridyl)azetidin-3-yl]-3,4-dimethyl-cinnoline-6-carboxamide] |
| 72.3% | 1890 nM | COc1ccc(CNC(=O)c2ccc3nnc(C)c(C)c3c2)cc1F [Compound 15, N-[(3-fluoro-4-methoxy-phenyl)methyl]-3,4-dimethyl-cinnoline-6-carboxamide] |
| 27.5% | 2200 nM | Cc1cc(C)c2cc(C(=O)NC3CN(c4nccc(Br)c4Cl)C3)ccc2n1 [Compound 11, N-[1-(4-bromo-3-chloro-2-pyridyl)azetidin-3-yl]-2,4-dimethyl-quinoline-6-carboxamide] |
| 59.3% | > 10000 nM | Cc1nnc2ccc(C(=O)NC3CC(F)C3)cc2c1C (stereo not shown) [Compound 40, N-(3-fluorocyclobutyl)-3,4-dimethyl-cinnoline-6-carboxamide] |
| 77.8% | > 10000 nM | Cc1nnc2ccc(C(=O)NC3CN(c4cnc(C(F)(F)F)cn4)C3)cc2c1C [Compound 21, 3,4-dimethyl-N-[1-[5-(trifluoromethyl)pyrazin-2-yl]azetidin-3-yl]cinnoline-6-carboxamide] |
| 82.6% | > 10000 nM | Cc1nnc2ccc(C(=O)NC3CC3)cc2c1C [Compound 39, N-cyclopropyl-3,4-dimethyl-cinnoline-6-carboxamide] |
